The target of one data set is T1, ERα (Homo sapiens, UniProt P03372).
T1 construct: purchased Life Technologies, Carlsbad, CA
T1 sequence (P03372 1-595): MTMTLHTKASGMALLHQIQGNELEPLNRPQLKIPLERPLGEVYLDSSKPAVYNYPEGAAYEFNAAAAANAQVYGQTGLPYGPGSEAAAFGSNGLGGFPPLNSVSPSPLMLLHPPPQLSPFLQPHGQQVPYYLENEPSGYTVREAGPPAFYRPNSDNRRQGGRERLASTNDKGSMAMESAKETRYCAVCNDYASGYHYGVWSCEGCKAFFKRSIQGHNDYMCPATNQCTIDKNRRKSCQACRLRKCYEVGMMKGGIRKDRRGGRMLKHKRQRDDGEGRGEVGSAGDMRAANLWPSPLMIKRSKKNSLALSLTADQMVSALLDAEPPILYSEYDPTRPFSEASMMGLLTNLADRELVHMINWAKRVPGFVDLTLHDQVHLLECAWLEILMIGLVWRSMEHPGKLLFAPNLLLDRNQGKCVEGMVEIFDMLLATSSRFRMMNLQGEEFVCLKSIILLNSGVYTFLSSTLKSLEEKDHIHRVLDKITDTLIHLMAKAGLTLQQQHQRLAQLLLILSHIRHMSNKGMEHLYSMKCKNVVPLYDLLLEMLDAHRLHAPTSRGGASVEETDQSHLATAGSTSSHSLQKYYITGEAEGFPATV
The experiment in a line: PolarScreen ER Alpha Competitor Assay (fluorescence polarisation). The settings on record: for IC50: 25 nM ERα, 4.5 nM fluormone, read-out: ER binding pIC50 (converted). In kind it is binding. How it is done: The pIC50 values of the molecules (Table 1) were measured using green PolarScreen™ ER Alpha Competitor Assay (Life Technologies, Carlsbad, CA) kit, following the protocol provided by the manufacturer as previously described. The final concentration of the molecules ranged between 0.0007 and 10,000 nM in the prepared dilution series. […] After mixing the assay plate, it was incubated for 2 h at the room temperature.
In general terms: Polarisation of emitted light reports the rotation of a fluorescent probe.

The target in data set [1] is T2, heterologously expressed human CYP1A2 enzyme (Homo sapiens, UniProt P05177).
T2 construct: purchased Corning Inc., Corning, NY
T2 sequence (P05177 1-516): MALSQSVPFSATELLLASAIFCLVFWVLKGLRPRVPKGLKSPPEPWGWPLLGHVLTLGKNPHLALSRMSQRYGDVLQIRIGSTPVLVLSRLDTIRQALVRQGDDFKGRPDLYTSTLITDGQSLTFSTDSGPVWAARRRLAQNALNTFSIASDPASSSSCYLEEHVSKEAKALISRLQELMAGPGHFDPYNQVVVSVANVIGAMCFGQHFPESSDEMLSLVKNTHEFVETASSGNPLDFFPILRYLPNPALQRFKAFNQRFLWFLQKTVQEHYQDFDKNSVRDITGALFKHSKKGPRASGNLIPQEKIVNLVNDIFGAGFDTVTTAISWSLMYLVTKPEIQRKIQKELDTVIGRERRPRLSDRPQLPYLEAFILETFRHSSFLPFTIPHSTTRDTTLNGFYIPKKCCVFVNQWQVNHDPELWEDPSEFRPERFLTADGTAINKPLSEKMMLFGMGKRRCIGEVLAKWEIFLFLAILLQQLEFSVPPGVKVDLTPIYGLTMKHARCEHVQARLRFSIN
The experiment in a line: CYP1A2 inhibition. The settings on record: for IC50: read-out: CYP1A2 inhibition ∼ pIC50 (converted). In kind it is biochemical. How it is done: Inhibition of CYP1A2 activity was determined using commercial heterologously expressed human CYP1A2 enzyme (Corning Inc., Corning, NY) essentially as described previously.

Data set [2] has as its target T3, Aromatase (CYP19A1), human placental microsomes (Homo sapiens, UniProt P11511).
T3 construct: by using human placental microsomes; from tissue; host or cells: human placental microsomes
T3 sequence (P11511 1-503): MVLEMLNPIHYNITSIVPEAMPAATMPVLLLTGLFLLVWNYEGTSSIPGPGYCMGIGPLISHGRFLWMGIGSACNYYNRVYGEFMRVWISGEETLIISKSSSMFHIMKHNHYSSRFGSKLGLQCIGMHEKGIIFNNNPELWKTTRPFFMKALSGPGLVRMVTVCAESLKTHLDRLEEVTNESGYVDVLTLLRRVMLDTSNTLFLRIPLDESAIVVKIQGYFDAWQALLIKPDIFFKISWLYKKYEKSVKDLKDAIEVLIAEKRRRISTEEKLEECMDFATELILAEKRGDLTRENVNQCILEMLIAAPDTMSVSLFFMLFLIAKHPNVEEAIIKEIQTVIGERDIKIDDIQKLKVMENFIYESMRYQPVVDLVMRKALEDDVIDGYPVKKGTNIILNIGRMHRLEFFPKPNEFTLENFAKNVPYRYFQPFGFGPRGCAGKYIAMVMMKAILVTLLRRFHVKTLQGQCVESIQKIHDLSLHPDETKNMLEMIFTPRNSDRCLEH
The experiment in a line: Aromatase activity, [3H]-H2O release from [3H]-androstenedione. The format is biochemical. The settings on record: 50 nM [3H]-androstenedione; inhibitor 60–1000 nM; read-out: Aromatase inhibition ∼ pIC50 (converted). How it is done: Aromatase (CYP19A1) activity was measured as described previously[22] by using human placental microsomes and 50 nM [3H]-androstenedione as a substrate and inhibitor concentrations in the range of 60–1000 nM. Aromatase activities were measured as released [3H]-H2O in Optiphase Hisafe 2 scintillation liquid (Perkin Elmer, Waltham, MA) with a Wallac 1450 MicroBeta Trilux scintillation counter (Perkin Elmer, Waltham, MA). As a positive control for aromatase inhibition, 1 µM finrozole (generous gift from Olavi Pelkonen, University of Oulu, Finland) was used.

Another data set addresses T4, recombinant human HSD1 (Homo sapiens, UniProt P14061).
T4 construct: made in house; host or cells: Sf9 insect cells
T4 sequence (P14061 1-328): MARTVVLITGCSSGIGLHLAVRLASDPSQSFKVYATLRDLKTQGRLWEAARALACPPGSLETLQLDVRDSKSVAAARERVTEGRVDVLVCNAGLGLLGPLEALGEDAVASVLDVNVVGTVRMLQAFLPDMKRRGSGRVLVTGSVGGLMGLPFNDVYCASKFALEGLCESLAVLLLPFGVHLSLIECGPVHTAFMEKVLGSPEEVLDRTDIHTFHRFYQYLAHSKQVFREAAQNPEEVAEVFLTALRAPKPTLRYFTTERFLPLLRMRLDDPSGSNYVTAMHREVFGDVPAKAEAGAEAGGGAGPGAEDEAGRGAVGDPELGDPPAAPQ
The experiment in a line: HSD1 inhibition, HPLC assay of [3H]-E1 to [3H]-E2 conversion. In kind it is biochemical. The settings on record: for inhibition at 0.1 µM: average of two measurements; for inhibition at 0.1 µM / inhibition at 1 µM: except for compounds 8 and 9; for inhibition at 1 µM: average of three measurements; for IC50: estimated from three measurements at 1 µM, average ± standard error, read-out: HSD1 inhibition ∼ pIC50 (converted). How it is done:
The inhibition was determined by HPLC using recombinant human HSD1 and HSD2 proteins as described in a prior study. In short, recombinant human HSD1 and HSD2 were produced in Sf9-insect cells. […] After incubation, the reaction was stopped by addition of […] 10% trichloroacetic acid per sample. […] The ratio of [3H]-E1 converted to [3H]-E2 or vice versa determines the conversion percentage of the samples. Inhibition was measured in three concentrations (100 nM, 1, and 5 µM) in order to follow the progression of inhibition efficiencies. Inhibition efficiencies of the tested inhibitors were calculated by comparing the conversion percentages of the samples including inhibitors with those of conversion controls (without inhibitors).

Setting [3] is: 100 nM, read-out: HSD1 inhibition at 100 nM.
Setting [4] is: 1 µM, read-out: HSD1 inhibition at 1 µM.
Where [5] appears, read: 5 µM, read-out: HSD1 inhibition at 5 µM.

Read-outs that look alike come from different tables or passages of the source.

Usually inhibition stands for the drop in the measured response relative to a control, in per cent. Turning to `COc1ccc(-c2cc3cccc(O)c3oc2=O)cc1` [Compound 1, 8-hydroxy-3–(4-methoxyphenyl)-2H-chromen-2-one], the IC50 on ERα was over 10 µM; in data set [1] it was 85.1 µM; in data set [2] it was over 1 µM; at recombinant human HSD1, 0.501 µM. The inhibition at 0.1 µM at recombinant human HSD1 (setting [3]) came out at 16%. For the same compound, the inhibition at 1 µM on recombinant human HSD1 (setting [4]) is at least 68%. In addition, the inhibition at 5 µM at recombinant human HSD1 (setting [5]) was determined as 88%.
Turning to `O=c1oc2ccc(O)cc2cc1-c1ccc(O)cc1` [Compound 2, 6-hydroxy-3–(4-hydroxyphenyl)-2H-chromen-2-one], the IC50 was over 10 µM on ERα, 33.1 µM in data set [1], over 1 µM in data set [2] and 0.631 µM on recombinant human HSD1. In addition, the inhibition at 0.1 µM on recombinant human HSD1 (read-out: HSD1 inhibition at 100 nM, 100 nM) was 26%. For the same compound, on recombinant human HSD1 (read-out: HSD1 inhibition at 1 µM, 1 µM), the inhibition at 1 µM is at least 68%. At recombinant human HSD1 (read-out: HSD1 inhibition at 5 µM, 5 µM), the inhibition at 5 µM worked out at 83%.
`O=c1oc2ccccc2cc1-c1cccc(O)c1` [Compound 3, 3–(3-hydroxyphenyl)-2H-chromen-2-one]: the IC50 on ERα was over 10 µM; in data set [1], 7.08 µM; in data set [2] it was over 1 µM; on recombinant human HSD1, 1.26 µM. Also, the inhibition at 0.1 µM at recombinant human HSD1 (setting [3]) stood at 7%. On recombinant human HSD1 (setting [4]), the inhibition at 1 µM was 47%. At recombinant human HSD1 (setting [5]), the inhibition at 5 µM was determined as 76%.
Regarding `O=c1oc2ccc(Cl)cc2cc1-c1cccc(O)c1` [Compound 4, 6-chloro-3–(3-hydroxyphenyl)-2H-chromen-2-one], the IC50 at ERα was over 10 µM; in data set [1] it was 0.129 µM; in data set [2] it was over 1 µM; on recombinant human HSD1 it was 0.158 µM. The inhibition at 0.1 µM on recombinant human HSD1 (setting [3]) is 47%. Further, the inhibition at 1 µM on recombinant human HSD1 (setting [4]) is at least 68%. In addition, the inhibition at 5 µM on recombinant human HSD1 (setting [5]) amounted to 95%.
On to `COc1ccc2cc(-c3ccc(O)c(F)c3)c(=O)oc2c1` [Compound 6, 3–(3-fluoro-4-hydroxyphenyl)-7-methoxy-2H-chromen-2-one], for which, at ERα, the “ER inhibition (in words)” value was “reasonable ER inhibition”. Besides, the IC50 is 0.708 µM on ERα, over 1 µM in data set [2] and 3.98 µM on recombinant human HSD1. Moreover, in data set [1], the “CYP1A2 inhibition ∼ pIC50” value is 4.52. Besides, the inhibition at 0.1 µM at recombinant human HSD1 (setting [3]) was found to be 14%. For the same compound, at recombinant human HSD1 (setting [4]), the inhibition at 1 µM is 23%. The inhibition at 5 µM on recombinant human HSD1 (setting [5]) is 27%.
Consider `COc1ccc2oc(=O)c(-c3ccc(O)c(F)c3)cc2c1` [Compound 7, 3–(3-fluoro-4-hydroxyphenyl)-6-methoxy-2H-chromen-2-one], for which the IC50 on ERα was over 10 µM; in data set [2] it was over 1 µM; on recombinant human HSD1 it was 1.58 µM. Moreover, the “CYP1A2 inhibition ∼ pIC50” value in data set [1] was 5.82. Also, the inhibition at 0.1 µM on recombinant human HSD1 (setting [3]) turned out to be 16%. The inhibition at 1 µM on recombinant human HSD1 (setting [4]) turned out to be 39%. Moreover, the inhibition at 5 µM on recombinant human HSD1 (setting [5]) was found to be 62%.
